Literature values as cited in US20070218033A1, “Composition and method of treating hepatitis C” (priority 1991, published 2007).
Read-outs that look alike come from different tables or passages of the source. Where no end group is shown, it is not given here.

Assays:
HCV-related diseases = conditions: in vivo
[1] = system: response to influenze vaccine; conditions: subcutaneously twice weekly
[2] = system: Woodchuck Hepatitis Virus; conditions: woodchuck infected with Woodchuck Hepatitis Virus
hepatitis B virus (HBV) = conditions: treated for a year
[3] = system: natural killer-cell activity; conditions: THNα1 and interferon together; immunosuppressed mice
[4] = system: nonsmall cell lung cancer
[5] = system: post-transfusion NANB hepatitis
[6] = system: chronic hepatitis C (NANB hepatitis)
chronic NANB hepatitis = conditions: for proportion of patients with normal ALT levels at week 48: after treatment
[7] = 900 μgrams/m^2 subcutaneously after radiotherapy

**Q.** Which “effectiveness in HCV-related diseases” value (HCV-related diseases) does the source give for `Nc1nc2c(ncn2COCCO)c(=O)[nH]1` [acyclovir] here?
**A.** Its value is “ineffective”.

**Q.** Which results are given for “THNα1: 28 amino acidic polypeptide, molecular weight 3100, initially isolated from TF-5, sequenced and chemically synthesized (SDAAVDTSSEITTKDLKEKKEVVEEAEN; not fully specified; ends and bridges not checked; UniProt P06454 2-29, looked up)”?
**A.** clinical or biochemical toxicity ([1]; drug recipients): No clinical or biochemical toxicity; levels of antibody to influenza versus controls ([1]; six weeks post-vaccine): higher levels; viral DNA replication [2]: suppressed; patients with reduced levels of serum HBV DNA (hepatitis B virus (HBV); pooled THNα1 (5) and TF-5 (2) patients): 6 of the 7; patients initially positive for serum HBsAg who subsequently cleared this antigen (hepatitis B virus (HBV); pooled THNα1 and TF-5 patients): 5 of 6; effect on natural killer-cell activity [3]: synergistic effect; T-cell numbers [4, 7]: no increase; radiation-suppressed immune function [4, 7]: some restoration; relapse-free survival and overall survival versus placebo group ([4]; 900 μgrams/m^2 subcutaneously twice weekly, or daily for two weeks then twice weekly, both treatment groups): greater

**Q.** With α-interferon as the molecule, how does the side effects ([5]; 1 MU/day) read?
**A.** The side effects was “virtually absent”.

**Q.** And the “patients who improved their serum alanine transaminase (ALT) levels within one month of starting therapy” value ([5]; 5 MU daily in seven patients, 1 MU daily in three patients, ten patients)?
**A.** Its value is “eight of ten”.

**Q.** And the side effects ([5]; 5 MU/day dose)?
**A.** The side effects was “common”.

**Q.** What about the “degree of portal inflammation and loss of parenchymal hepatocytic necrosis in post-treatment liver biopsies” value ([5]; three patients with post-treatment liver biopsies) of the same molecule?
**A.** Its value is “marked improvement”.

**Q.** What about the “mean serum ALT and histological features of the liver” value (chronic HCV infection; 2 MU subcutaneously three times weekly for six months, 21 patients) of the same molecule?
**A.** Its value is “improved significantly”.

**Q.** And the “other patients with a decrease in mean ALT of more than 50%” value (chronic HCV infection; 2 MU subcutaneously three times weekly for six months, number of patients)?
**A.** The value was “three”.

**Q.** What about the “complete response (decline in mean serum ALT to the normal range during therapy)” value (chronic HCV infection; 2 MU subcutaneously three times weekly for six months, ten of 21 patients) of the same molecule?
**A.** The value was 48%.

**Q.** What about the “patients still with normal ALT values six to twelve months after discontinuation of therapy” value (chronic HCV infection; 2 MU three times weekly for six months, two patients) of the same molecule?
**A.** The value was 10%.

**Q.** And the “relapse within six months after the completion of treatment” value ([6]; 1 MU)?
**A.** Its value is 44%.

**Q.** What about the “responded to treatment (serum ALT)” value ([6]; 1 MU three times weekly for 24 weeks, nine of sixteen patients) of the same molecule?
**A.** Its value is 56%.

**Q.** What about the “relapse within six months after the completion of treatment” value ([6]; 3 MU) of the same molecule?
**A.** Its value is 51%.

**Q.** And the “liver histology (regression of lobular and periportal inflammation)” value ([6]; 3 MU three times weekly for 24 weeks)?
**A.** The value was “histologic improvement”.

**Q.** And the “serum ALT level became completely normal” value ([6]; 3 MU three times weekly for 24 weeks, 22 of the 26 patients who responded)?
**A.** The value was 85%.

**Q.** And the “proportion of patients with normal ALT levels at 24 weeks” value (chronic NANB hepatitis; 1 MU group)?
**A.** The value was 45%.

**Q.** And the “proportion of patients with normal ALT levels at week 48” value (chronic NANB hepatitis; 1 MU group)?
**A.** The value was 20%.

**Q.** What about the “mean serum ALT levels during the 24 week treatment period” value (chronic NANB hepatitis; 1 MU three times a week) of the same molecule?
**A.** The value was “decreased”.

**Q.** And the “proportion of patients with normal ALT levels at 24 weeks” value (chronic NANB hepatitis; 3 MU group)?
**A.** The value was 39%.

**Q.** What about the “proportion of patients with normal ALT levels at week 48” value (chronic NANB hepatitis; 3 MU group) of the same molecule?
**A.** The value was 28%.

**Q.** And the “decrease of mean serum ALT levels during the 24 week treatment period” value (chronic NANB hepatitis; 3 MU three times a week)?
**A.** Its value is “statistically significant”.

**Q.** And the “relapse in disease activity among responders when interferon was stopped” value (chronic NANB hepatitis; fraction of the responders)?
**A.** The value was “approximately half”.

**Q.** What about the “severity of histological changes in repeat liver biopsy specimens” value (chronic NANB hepatitis; higher dose group (3 MU)) of the same molecule?
**A.** Its value is “significant decrease”.

**Q.** And the “severity of histological changes in repeat liver biopsy specimens” value (chronic NANB hepatitis; lower dose group (1 MU))?
**A.** Its value is “not in the lower dose group”.
